Assay results from patent US11590240B2, “Nano-fibular nanoparticle polymer-drug conjugate for sustained dermal delivery of retinoids” (Massachusetts Institute of Technology, priority 2015, dated 2023).

Columns and labels:
Balb/CJ mouse = assay: Irritation after topical application to mouse dermis (digital imaging, H&E histology); assay type: in vivo; conditions: for gross appearance of treated skin: 10 μM ATRA dosing equivalent, topical
Protocol: Mice used for the assessment of irritation were given each of the two different treatments on 1 cm^2 regions of their dorsum, these included PATRA, ATRA, PVA, and PBS. A total of twelve mice were used in this assessment. 50 μL of 10 μM ATRA solution was placed on two 1 cm^2 shaved areas on the flanks of a Balb/CJ mouse on either side of midline. PATRA (0.092 mg mL^−1) and PVA (0.089 mg mL^−1) concentrations were controlled for 10 μM ATRA dosing. These solutions were rubbed into the skin using a cotton-tipped applicator for 30 seconds.
Tissues were fixed in zinc fixative without formalin for 48 hours. The excised tissues were cut on center and then embedded cut-face down in paraffin. Sections were taken at the wound center and at one further level of 500 μm reaching a total of 1 mm sampling length through the application site. At each level an H&E slide was stained. Unstained slides were also taken for potential IHC analysis of the tissue. All sections were 5 μm thick. Image analysis was performed using Image J.
To investigate the relative irritative nature of PATRA in comparison to ATRA, each was tested on the flanks of mice. Irritation was evaluated by digital imaging of the application site of ATRA, PATRA, or control solutions for up to five days post-application as well as by histological evaluation of inflammation after 5 days. In brief, 50 μL of 10 μM ATRA solution was placed on a 1 cm^2 shaved area on the flank of a Balb/CJ mouse. PATRA (0.092 mg mL^−1) and PVA (0.089 mg mL^−1) concentrations were controlled for 10 μM ATRA dosing. This solution is rubbed into the skin using a cotton-tipped applicator for 30 seconds. Each mouse received one of the four different material solutions applied in two locations. Inflammation and dermal changes subsequent to ATRA application were evaluated by both by digital imaging and by H&E histology.

[1] = Solubility of free ATRA and PATRA in different solutions (UV absorbance of supernatant); assay type: physicochemical
Protocol: Solubility was evaluated by bringing 2 mg/ml of ATRA either free or conjugated to PVA into equilibrium at room temperature for 1 hour, followed by centrifugation of the solution at 1,500 rpm for five minutes to remove undissolved precipitate. The supernatant from this process was then used for the testing of ATRA concentration via UV absorbance as previously described.

[2] = Uptake, retention and penetration of ATRA in pig skin, Franz diffusion cell; assay type: in vitro ADME
Protocol: Uptake, retention, and penetration of ATRA in pig skin were investigated using a Franz diffusion cell as described and known in the art. Skin was harvested from the flanks of adult female Yorkshire pigs 1 hour after sacrifice with subcutaneous fat removed. Skin was sectioned and frozen at −80° C. for up to six months prior to use. Skin was prepared for diffusion experiments by thawing in PBS for one hour after which time all hair on the skin was shaven off. Test samples of skin were cut to 30 mm×30 mm square samples and placed into the diffusion cell such that the top of the dermis faced a 3 mL testing retention reservoir and the underside faced a 15 mL penetration reservoir. […]
Samples were placed into the retention reservoir at a concentration of 0.1 mg/mL and followed for up to 12 hours. ATRA concentration was evaluated in both the retention and penetration reservoirs every four hours during this period via UV absorbance measurements. […] For both groups, the penetration reservoir was filled with a hydroalcoholic solution so that the ATRA that could penetrate the skin would be soluble for UV absorbance measurement. […]
Samples to be tested were placed into the retention reservoir at a concentration of 0.1 mg/mL and followed for up to 12 hours. ATRA concentration was evaluated in both the retention and penetration reservoirs every four hours during this period via UV absorbance measurements. […]

CC1=C(/C=C/C(C)=C/C=C/C(C)=C/C(=O)O)C(C)(C)CCC1 [ATRA, All-trans retinoic acid]
stratum corneum (SC) and epidermal thickness, histology (Balb/CJ mouse; after 5 days): Significantly increased | gross appearance of treated skin (Balb/CJ mouse; five days post-application): still has a rash-like quality with a thick and calloused appearance | gross appearance of treated skin (Balb/CJ mouse; three days post-application): begins to appear inflamed after three days | solubility, in words ([1]; PBS 1× (pH7.4)): insoluble | solubility, in words ([1]; deionized water): insoluble | fraction of ATRA accumulated within the treated skin ([2]; 12 hours of exposure, 0.1 mg/mL in retention reservoir, room temperature): 1.9±0.9% | ATRA in the receiving (penetration) reservoir, free ATRA versus PATRA ([2]; every four hours up to 12 hours): much higher level of ATRA accumulation at every time point tested
